Read-outs that look alike come from different tables or passages of the source.
Experiments:
[1] = system: OVCAR ovarian cancer cells; assay: NCI in vitro anticancer screen, OVCAR ovarian cancer; assay type: cell-based; conditions: Homo sapiens, read-out: cytotoxicity GI50, Ovarian OVCAR
Source text: (§1) The effects of the analogs on cancer cell growth was investigated in the National Cancer Institute (NCI) Developmental Therapeutics Program's in vitro panel of approximately 55 cell lines (Grever et al., Seminars in Oncology 19:622 (1992), Alley et al., Cancer Research 48:589 (1988) and Montes et al., J. National Cancer Institute 83:757 (1991)). Representative results are listed in Table 1 for HOP-62 non-small-cell lung cancer cells, HCT-116 colon cancer cells, SF-539 central nervous system (CNS) cancer cells, UACC-62 melanoma cells, OVCAR ovarian cancer cells, SN12-C renal cancer cells, DU-145 prostate cancer cells, and MDA-MB-435 breast cancer cells.
(§2) ^a The cytotoxicity GI50 values are the concentrations

[2] = system: HTC-15; assay: NCI screen, colon cancer; assay type: cell-based; conditions: Homo sapiens, read-out: Log10 GI50, HTC-15 (converted)
[3] = system: MOLT-4; assay: NCI screen, leukemia; assay type: cell-based; conditions: Homo sapiens, read-out: Log10 GI50, MOLT-4 (converted)
[4] = system: HOP-62 non-small-cell lung cancer cells; assay: NCI in vitro anticancer screen, HOP-62 non-small-cell lung cancer; assay type: cell-based; conditions: Homo sapiens
Source text: as §1, §2

[5] = system: EKVX; assay: NCI screen, non-small cell lung cancer; assay type: cell-based; conditions: Homo sapiens, read-out: Log10 GI50, EKVX (converted)
[6] = system: MCF7; assay: NCI screen, breast cancer; assay type: cell-based; conditions: Homo sapiens, read-out: Log10 GI50, MCF7 (converted)
[7] = system: OVCAR-3; assay: NCI screen, ovarian cancer; assay type: cell-based; conditions: Homo sapiens, read-out: Log10 GI50, OVCAR-3 (converted)
[8] = system: A549/ATCC; assay: NCI screen, non-small cell lung cancer; assay type: cell-based; conditions: Homo sapiens, read-out: Log10 GI50, A549/ATCC (converted)
[9] = system: MDA-MB-435 breast cancer cells; assay: NCI in vitro anticancer screen, MDA-MB-435 breast cancer; assay type: cell-based; conditions: Homo sapiens
Source text: The effects of the analogs on cancer cell growth was investigated in the National Cancer Institute (NCI) Developmental Therapeutics Program's in vitro panel of approximately 55 cell lines (Grever et al., Seminars in Oncology 19:622 (1992), Alley et al., Cancer Research 48:589 (1988) and Montes et al., J. National Cancer Institute 83:757 (1991)).

[10] = system: OVCAR-8; assay: NCI screen, ovarian cancer; assay type: cell-based; conditions: Homo sapiens, read-out: Log10 GI50, OVCAR-8 (converted)
[11] = system: 786-0; assay: NCI screen, renal cancer; assay type: cell-based; conditions: Homo sapiens, read-out: Log10 GI50, 786-0 (converted)
[12] = system: all human cancer cell lines (approximately 55); assay: NCI in vitro anticancer screen, all cell lines; assay type: cell-based
Source text: as §1
^b Mean graph midpoint for all human cancer cell lines (approximately

[13] = system: HCT-116 colon cancer cells; assay: NCI in vitro anticancer screen, HCT-116 colon cancer; assay type: cell-based; conditions: Homo sapiens
Source text: as §1, §2

[14] = system: UO-31; assay: NCI screen, renal cancer; assay type: cell-based; conditions: Homo sapiens, read-out: Log10 GI50, UO-31 (converted)
[15] = system: tubulin; assay: Inhibition of tubulin polymerization (turbidimetry at 350 nm); assay type: biochemical, bovine; conditions: 26° C., 20 min; read-out: Inhibn of Tubulin Polymn IC50
Method: Four instruments were used, and two control reaction mixtures were present in each experiment. […] IC50 values were determined graphically. […]
Inhibition of tubulin polymerization was investigated using electrophoretically homogeneous tubulin from bovine brain.

[16] = system: SNB-75; assay: NCI screen, CNS cancer; assay type: cell-based; conditions: Homo sapiens, read-out: Log10 GI50, SNB-75 (converted)
[17] = system: SR; assay: NCI screen, leukemia; assay type: cell-based; conditions: Homo sapiens, read-out: Log10 GI50, SR (converted)
[18] = system: SK-MEL-28; assay: NCI screen, melanoma; assay type: cell-based; conditions: Homo sapiens, read-out: Log10 GI50, SK-MEL-28 (converted)
[19] = system: DU-145 prostate cancer cells; assay: NCI in vitro anticancer screen, DU-145 prostate cancer; assay type: cell-based; conditions: Homo sapiens
Source text: as §1, §2

[20] = biological target: T1, estrogen receptor (Rattus norvegicus, UniProt P06211); assay: Estrogen binding affinity assay (comparative radiometric binding, rat uterine cytosol)
T1 construct: from tissue; host or cells: rat uterine cytosol
T1 sequence (P06211 1-600): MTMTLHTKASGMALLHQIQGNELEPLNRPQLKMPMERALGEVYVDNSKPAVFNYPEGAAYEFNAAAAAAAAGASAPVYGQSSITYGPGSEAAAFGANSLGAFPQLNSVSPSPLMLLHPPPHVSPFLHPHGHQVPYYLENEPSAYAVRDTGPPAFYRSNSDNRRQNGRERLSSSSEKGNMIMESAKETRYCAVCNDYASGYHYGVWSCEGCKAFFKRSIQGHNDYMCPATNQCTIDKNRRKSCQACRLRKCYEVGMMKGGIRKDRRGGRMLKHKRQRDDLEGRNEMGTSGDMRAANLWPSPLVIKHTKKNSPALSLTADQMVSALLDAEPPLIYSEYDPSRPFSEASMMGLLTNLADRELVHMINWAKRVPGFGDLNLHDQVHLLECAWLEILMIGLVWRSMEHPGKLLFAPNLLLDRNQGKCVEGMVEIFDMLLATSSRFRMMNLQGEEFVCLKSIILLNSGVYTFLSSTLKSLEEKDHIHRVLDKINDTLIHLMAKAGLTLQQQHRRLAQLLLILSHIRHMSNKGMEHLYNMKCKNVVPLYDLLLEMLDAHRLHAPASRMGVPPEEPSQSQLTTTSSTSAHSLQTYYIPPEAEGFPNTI
Method: The assay of (11), (12) and (16) were conducted at 0° C. for 20 hours, while those for (1) and (2) were performed at 0° C. for 18 hours.

[21] = system: SNB-19; assay: NCI screen, CNS cancer; assay type: cell-based; conditions: Homo sapiens, read-out: Log10 GI50, SNB-19 (converted)

What does the source list for C[C@]12CC[C@@H]3c4cc(OCC(F)(F)F)c(O)cc4C(=NO)C[C@H]3[C@@H]1CC[C@@H]2O [Compound 12, 2-(2',2', 2'-Trifluoroethoxy)-6-Hydroximino-Estra-1,3,5(10)-Triene-3,17β-Diol]?
GI50 [1]: < 10 nM; GI50 [2]: < 10 nM; GI50 [3]: < 10 nM; GI50 ([4]; HOP-62, read-out: cytotoxicity GI50, Lung HOP-62): < 10 nM; GI50 ([4]; HOP-62, Non-Small Cell Lung Cancer, read-out: Log10 GI50, HOP-62 (converted)): < 10 nM; GI50 [5]: < 10 nM; GI50 [6]: < 10 nM; GI50 [7]: < 10 nM; GI50 [8]: < 10 nM; GI50 ([9]; MDA-MB-435, read-out: cytotoxicity GI50, Breast MDA-MB-435): < 10 nM; GI50 ([9]; MDA-MB-435, Breast Cancer, read-out: Log10 GI50, MDA-MB-435 (converted)): < 10 nM; GI50 [10]: < 10 nM; GI50 [11]: < 10 nM; GI50 ([12]; 10^-8 molar is the lowest concentration normally investigated, read-out: GI50): < 10 nM; GI50 ([12]; approximately 55 cell lines, read-out: MGM (mean graph midpoint for all human cancer cell lines), GI50): 10 nM; GI50 ([12]; average of all cell lines of Table 2, read-out: Log10 GI50, Average (all cell lines) (converted)): < 10 nM; GI50 ([13]; HCT-116, read-out: cytotoxicity GI50, Colon HCT-116): < 10 nM; GI50 ([13]; HCT-116, Colon Cancer, read-out: Log10 GI50, HCT-116 (converted)): < 10 nM; GI50 [14]: < 10 nM; IC50 [15]: 500 nM; GI50 [16]: < 10 nM; GI50 [17]: < 10 nM; GI50 [18]: < 10 nM; GI50 ([19]; DU-145, read-out: cytotoxicity GI50, Prostate DU-145): < 10 nM; GI50 ([19]; DU-145, Prostate Cancer, read-out: Log10 GI50, DU-145 (converted)): < 10 nM; affinity for the estrogen receptor, in words [20]: very week affinity for the receptor; GI50 [21]: < 10 nM

Reference: patent US6136992A, “2-alkoxy estradiols and derivatives thereof” (The United States of America as represented by the …, priority 1998, dated 2000)
